Measured values: publication PMC12136031 (Science Advances, 2025)
Like-named read-outs stand apart in the source and are kept apart here.

Tests used:
[1] = target: T1, COX1 (Homo sapiens, UniProt P23219); experiment: Safety47 Enzymatic COX1; type: biochemical; conditions: Inhibitor; for Emax: read-out: Max Response; for IC50: read-out: RC50 (IC50)
T1 construct: purchased Eurofins Panlab (Safety47 Safety Scan, contract panel)

[2] = target: T2, HRH1 (Homo sapiens, UniProt P35367); experiment: Safety47 Calcium Flux HRH1; type: cell-based; conditions: for Emax: read-out: Max Response; for EC50: read-out: RC50 (EC50); for IC50: read-out: RC50 (IC50)
T2 construct: purchased Eurofins Panlab Safety47 Safety Scan
T2 sequence (P35367 whole entry): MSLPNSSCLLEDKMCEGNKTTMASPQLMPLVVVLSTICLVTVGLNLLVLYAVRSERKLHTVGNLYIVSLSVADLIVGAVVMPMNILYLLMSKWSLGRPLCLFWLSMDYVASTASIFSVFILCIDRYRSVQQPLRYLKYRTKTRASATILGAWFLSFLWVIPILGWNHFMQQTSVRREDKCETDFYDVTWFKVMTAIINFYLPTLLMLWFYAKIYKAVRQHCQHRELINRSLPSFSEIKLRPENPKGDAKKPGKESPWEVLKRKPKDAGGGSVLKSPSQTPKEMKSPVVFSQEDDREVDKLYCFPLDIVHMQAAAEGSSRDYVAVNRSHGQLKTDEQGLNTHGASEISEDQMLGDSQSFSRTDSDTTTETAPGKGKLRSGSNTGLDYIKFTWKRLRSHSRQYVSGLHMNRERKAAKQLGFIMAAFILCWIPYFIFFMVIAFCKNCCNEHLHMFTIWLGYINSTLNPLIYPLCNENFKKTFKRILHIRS

[3] = system: lysosomal pH; experiment: Lysosomal pH (lysosensor yellow/blue) in OC43-infected BEAS-2B cells; type: cell-based, human; conditions: OC43 7 hours, 18 hours pretreatment, 100 nM
[4] = target: T3, HTR1A (Homo sapiens, UniProt P08908); experiment: Safety47 cAMP HTR1A; type: cell-based; conditions: for Emax: read-out: Max Response; for EC50: read-out: RC50 (EC50); for IC50: read-out: RC50 (IC50)
T3 construct: purchased Eurofins Panlab Safety47 Safety Scan
T3 sequence (P08908 1-422): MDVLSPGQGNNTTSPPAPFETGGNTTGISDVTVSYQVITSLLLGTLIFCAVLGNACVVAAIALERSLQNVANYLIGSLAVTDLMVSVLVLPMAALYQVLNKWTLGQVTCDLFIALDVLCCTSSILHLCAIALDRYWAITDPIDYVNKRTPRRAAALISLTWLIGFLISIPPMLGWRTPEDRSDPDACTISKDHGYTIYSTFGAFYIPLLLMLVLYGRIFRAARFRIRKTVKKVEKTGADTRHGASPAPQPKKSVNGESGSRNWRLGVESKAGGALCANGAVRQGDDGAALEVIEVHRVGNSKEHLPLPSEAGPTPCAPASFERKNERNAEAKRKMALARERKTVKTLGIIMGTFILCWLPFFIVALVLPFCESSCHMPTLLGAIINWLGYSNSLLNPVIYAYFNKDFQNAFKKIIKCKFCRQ

[5] = target: T4, HTR2A (Homo sapiens, UniProt P28223); experiment: Safety47 Calcium Flux HTR2A; type: cell-based; conditions: for Emax: read-out: Max Response; for EC50: read-out: RC50 (EC50); for IC50: read-out: RC50 (IC50)
T4 construct: purchased Eurofins Panlab Safety47 Safety Scan
T4 sequence (P28223 whole entry): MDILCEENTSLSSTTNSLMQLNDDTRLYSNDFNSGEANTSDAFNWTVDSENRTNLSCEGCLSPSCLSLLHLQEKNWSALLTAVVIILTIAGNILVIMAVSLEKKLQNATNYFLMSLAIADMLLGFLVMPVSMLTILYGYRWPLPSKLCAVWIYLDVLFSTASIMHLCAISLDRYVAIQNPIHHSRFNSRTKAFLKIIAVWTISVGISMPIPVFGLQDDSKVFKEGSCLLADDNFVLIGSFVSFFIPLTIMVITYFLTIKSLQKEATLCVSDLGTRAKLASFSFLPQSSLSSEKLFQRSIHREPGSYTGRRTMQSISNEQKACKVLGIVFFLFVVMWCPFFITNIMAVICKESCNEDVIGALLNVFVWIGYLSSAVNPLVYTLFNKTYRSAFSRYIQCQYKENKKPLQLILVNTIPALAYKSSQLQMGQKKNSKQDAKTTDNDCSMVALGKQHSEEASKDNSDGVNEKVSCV

[6] = system: TFEB transcriptional targets; experiment: RNA-seq of DCAF7 inhibitor-treated BEAS-2B cells; type: cell-based, human; conditions: 3 μM, 18 hours
[7] = target: T5, HTR2B (Homo sapiens, UniProt P41595); experiment: Safety47 Calcium Flux HTR2B; type: cell-based; conditions: for Emax: read-out: Max Response; for EC50: read-out: RC50 (EC50); for IC50: read-out: RC50 (IC50)
T5 construct: purchased Eurofins Panlab Safety47 Safety Scan
T5 sequence (P41595 whole entry): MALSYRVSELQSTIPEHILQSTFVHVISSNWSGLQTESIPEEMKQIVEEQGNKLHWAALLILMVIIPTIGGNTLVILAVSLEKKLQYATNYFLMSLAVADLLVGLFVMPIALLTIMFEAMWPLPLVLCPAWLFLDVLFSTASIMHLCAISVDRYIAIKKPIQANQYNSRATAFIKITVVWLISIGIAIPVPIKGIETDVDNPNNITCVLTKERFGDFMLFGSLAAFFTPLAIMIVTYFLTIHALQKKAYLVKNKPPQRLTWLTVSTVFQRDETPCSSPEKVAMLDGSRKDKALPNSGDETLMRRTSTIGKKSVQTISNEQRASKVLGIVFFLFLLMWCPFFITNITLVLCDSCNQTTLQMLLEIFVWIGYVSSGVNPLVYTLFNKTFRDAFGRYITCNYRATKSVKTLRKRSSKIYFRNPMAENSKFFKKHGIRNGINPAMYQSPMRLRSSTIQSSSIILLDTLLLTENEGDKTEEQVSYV

[8] = system: GABAA; experiment: Safety47 Ion Channel GABAA; type: cell-based; conditions: for IC50: read-out: RC50 (IC50); for EC50: read-out: RC50 (EC50)
[9] = target: T6, ADRA2A (Homo sapiens, UniProt P08913); experiment: Safety47 cAMP ADRA2A; type: cell-based; conditions: for Emax: read-out: Max Response; for EC50: read-out: RC50 (EC50); for IC50: read-out: RC50 (IC50)
T6 construct: purchased Eurofins Panlab Safety47 Safety Scan
T6 sequence (P08913 1-465): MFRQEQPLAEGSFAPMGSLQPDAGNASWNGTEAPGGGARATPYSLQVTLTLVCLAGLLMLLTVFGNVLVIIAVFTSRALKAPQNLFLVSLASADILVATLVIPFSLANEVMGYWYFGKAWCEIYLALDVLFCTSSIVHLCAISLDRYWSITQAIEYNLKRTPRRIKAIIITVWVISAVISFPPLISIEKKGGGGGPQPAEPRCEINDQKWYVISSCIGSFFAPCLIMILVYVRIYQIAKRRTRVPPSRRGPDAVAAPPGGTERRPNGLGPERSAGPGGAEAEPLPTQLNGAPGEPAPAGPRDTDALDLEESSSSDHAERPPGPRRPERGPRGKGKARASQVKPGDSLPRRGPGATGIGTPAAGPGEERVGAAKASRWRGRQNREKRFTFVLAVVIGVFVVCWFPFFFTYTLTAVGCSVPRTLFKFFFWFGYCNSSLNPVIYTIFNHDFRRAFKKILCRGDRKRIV

[10] = target: T7, hERG (Homo sapiens, UniProt Q12809); experiment: Safety47 Ion Channel hERG; type: cell-based; conditions: Blocker; for IC50: read-out: RC50 (IC50); for Emax: human, read-out: Max Response
T7 construct: purchased Eurofins Panlab (Safety47 Safety Scan, contract panel)
T7 sequence (Q12809 whole entry): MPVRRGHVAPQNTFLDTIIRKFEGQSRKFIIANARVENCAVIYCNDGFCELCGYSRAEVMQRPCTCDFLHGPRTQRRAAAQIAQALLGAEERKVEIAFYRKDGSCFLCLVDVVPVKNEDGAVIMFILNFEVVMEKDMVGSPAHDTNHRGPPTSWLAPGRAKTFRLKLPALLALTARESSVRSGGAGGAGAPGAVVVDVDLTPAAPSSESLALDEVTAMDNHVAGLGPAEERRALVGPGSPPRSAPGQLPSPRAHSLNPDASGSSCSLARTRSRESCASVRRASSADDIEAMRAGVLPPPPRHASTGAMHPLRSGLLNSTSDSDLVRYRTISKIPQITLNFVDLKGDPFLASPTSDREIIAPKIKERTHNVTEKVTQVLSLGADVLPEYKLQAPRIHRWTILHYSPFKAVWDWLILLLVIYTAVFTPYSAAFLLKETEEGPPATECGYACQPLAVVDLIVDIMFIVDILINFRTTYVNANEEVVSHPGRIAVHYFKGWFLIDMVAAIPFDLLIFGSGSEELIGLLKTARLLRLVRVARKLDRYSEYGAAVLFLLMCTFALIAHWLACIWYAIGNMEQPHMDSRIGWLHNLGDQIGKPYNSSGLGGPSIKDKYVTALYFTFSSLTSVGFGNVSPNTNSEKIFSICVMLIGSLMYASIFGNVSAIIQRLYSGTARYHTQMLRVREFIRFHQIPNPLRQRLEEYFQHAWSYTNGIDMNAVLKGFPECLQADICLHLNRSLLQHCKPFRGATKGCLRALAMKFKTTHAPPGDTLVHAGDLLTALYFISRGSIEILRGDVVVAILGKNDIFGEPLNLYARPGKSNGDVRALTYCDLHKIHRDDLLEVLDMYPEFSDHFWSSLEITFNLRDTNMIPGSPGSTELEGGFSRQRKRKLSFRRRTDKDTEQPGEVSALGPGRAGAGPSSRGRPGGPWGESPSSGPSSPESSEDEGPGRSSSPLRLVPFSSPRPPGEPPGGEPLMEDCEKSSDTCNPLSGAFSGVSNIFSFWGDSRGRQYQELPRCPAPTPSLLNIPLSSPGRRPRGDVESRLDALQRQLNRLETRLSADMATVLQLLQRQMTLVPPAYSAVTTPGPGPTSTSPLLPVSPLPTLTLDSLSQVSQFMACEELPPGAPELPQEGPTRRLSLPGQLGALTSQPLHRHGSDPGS

[11] = system: hepatic endolysosomal capacity; experiment: Murine model of hepatic lysosomal activity (dextran cascade blue uptake); type: in vivo, C57BL/6 mice; conditions: 50 mg/kg i.p. daily for 4 days
[12] = system: TFEB; experiment: TFEB protein level / nuclear localization in BEAS-2B cells; type: cell-based, human; conditions: in the presence of DCAF7 (WT vs DCAF7 KO BEAS-2B), 18 hours
[13] = target: T8, GR (Homo sapiens, UniProt P04150); experiment: Safety47 NHR Protein Interaction GR; type: cell-based; conditions: for Emax: read-out: Max Response; for EC50: read-out: RC50 (EC50); for IC50: read-out: RC50 (IC50)
T8 construct: purchased Eurofins Panlab (Safety47 Safety Scan, contract panel)
T8 sequence (P04150 1-777): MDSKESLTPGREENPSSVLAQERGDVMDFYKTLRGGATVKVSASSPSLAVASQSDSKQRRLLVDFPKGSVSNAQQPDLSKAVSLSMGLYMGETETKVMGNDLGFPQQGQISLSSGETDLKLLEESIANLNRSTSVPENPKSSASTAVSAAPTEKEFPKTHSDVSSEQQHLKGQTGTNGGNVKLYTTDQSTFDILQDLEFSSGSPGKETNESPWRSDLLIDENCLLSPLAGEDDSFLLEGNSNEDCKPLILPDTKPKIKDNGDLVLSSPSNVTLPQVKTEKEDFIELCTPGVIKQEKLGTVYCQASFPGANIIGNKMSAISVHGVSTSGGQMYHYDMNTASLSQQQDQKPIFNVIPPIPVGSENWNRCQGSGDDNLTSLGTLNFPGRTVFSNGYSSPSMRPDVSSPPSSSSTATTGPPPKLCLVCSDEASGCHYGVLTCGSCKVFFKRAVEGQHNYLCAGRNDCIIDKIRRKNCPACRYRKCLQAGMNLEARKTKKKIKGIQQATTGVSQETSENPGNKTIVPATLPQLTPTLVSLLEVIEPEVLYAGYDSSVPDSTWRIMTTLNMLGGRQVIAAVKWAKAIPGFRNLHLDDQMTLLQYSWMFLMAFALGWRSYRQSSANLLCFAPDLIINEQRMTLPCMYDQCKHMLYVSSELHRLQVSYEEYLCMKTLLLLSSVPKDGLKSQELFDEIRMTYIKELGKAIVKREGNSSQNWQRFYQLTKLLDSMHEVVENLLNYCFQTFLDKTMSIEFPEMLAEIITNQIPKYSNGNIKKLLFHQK

[14] = target: T9, VEGFR2 (Homo sapiens, UniProt P35968); experiment: Safety47 Kinase Binding VEGFR2; conditions: Kinases, Inhibitor; for Emax: read-out: Max Response; for IC50: read-out: RC50 (IC50)
T9 construct: purchased Eurofins Panlab (Safety47 Safety Scan, contract panel)
T9 sequence (P35968 20-1356, species assumed): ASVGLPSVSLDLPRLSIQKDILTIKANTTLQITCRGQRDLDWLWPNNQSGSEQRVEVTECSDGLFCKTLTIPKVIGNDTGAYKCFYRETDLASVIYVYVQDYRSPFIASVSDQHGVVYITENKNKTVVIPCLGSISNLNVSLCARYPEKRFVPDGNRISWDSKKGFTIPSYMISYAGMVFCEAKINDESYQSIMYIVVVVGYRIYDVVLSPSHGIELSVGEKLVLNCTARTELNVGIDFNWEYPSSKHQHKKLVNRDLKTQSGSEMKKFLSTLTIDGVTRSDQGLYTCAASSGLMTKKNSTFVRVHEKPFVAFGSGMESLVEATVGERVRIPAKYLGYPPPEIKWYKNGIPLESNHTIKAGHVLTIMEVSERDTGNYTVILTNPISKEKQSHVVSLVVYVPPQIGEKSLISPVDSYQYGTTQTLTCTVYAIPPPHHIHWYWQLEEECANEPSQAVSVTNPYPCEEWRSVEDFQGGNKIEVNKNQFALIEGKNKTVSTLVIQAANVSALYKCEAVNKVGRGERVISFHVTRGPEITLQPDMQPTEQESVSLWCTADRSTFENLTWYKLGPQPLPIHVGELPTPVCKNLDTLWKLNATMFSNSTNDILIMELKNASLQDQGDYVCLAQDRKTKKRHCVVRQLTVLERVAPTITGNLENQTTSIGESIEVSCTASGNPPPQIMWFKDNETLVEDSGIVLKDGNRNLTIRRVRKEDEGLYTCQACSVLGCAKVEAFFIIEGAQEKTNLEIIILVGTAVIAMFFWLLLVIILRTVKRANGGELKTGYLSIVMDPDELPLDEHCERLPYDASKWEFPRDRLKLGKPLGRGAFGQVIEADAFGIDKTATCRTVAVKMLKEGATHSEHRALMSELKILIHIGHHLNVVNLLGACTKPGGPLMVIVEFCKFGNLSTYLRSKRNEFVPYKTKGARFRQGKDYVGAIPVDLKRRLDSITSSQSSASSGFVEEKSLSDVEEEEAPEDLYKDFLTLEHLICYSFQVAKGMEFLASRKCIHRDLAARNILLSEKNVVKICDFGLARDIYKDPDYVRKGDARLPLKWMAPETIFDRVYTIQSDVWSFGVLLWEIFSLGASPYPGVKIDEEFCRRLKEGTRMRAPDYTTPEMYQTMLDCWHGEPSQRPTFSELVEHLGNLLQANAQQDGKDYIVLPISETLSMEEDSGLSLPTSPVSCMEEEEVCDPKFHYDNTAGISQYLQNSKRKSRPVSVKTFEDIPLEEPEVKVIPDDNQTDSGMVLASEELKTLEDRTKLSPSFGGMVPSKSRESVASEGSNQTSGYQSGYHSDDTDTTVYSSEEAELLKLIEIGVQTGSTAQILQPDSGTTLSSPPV

T1 sequence (P23219 24-599): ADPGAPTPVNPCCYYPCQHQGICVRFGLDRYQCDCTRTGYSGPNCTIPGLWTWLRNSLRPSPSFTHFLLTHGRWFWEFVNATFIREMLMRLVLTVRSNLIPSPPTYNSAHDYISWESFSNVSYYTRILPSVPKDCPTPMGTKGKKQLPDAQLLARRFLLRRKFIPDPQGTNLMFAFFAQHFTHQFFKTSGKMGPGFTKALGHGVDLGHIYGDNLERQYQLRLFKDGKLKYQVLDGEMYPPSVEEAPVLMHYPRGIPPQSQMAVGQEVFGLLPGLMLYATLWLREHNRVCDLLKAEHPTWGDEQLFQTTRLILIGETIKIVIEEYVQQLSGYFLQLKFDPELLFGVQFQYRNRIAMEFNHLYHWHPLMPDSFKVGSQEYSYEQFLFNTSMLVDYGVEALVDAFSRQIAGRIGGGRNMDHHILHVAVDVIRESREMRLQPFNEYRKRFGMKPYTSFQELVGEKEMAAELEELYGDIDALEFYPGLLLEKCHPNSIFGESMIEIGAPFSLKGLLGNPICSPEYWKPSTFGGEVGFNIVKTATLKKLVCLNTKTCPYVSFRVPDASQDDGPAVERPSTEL

SMILES	Emax [1]	IC50 [1]	Emax ([2]; Agonist)	EC50 ([2]; Agonist)	Emax ([2]; Antagonist)	IC50 ([2]; Antagonist)	Emax ([4]; Agonist)	EC50 ([4]; Agonist)	Emax ([4]; Antagonist)	IC50 ([4]; Antagonist)	Emax ([5]; Agonist)	EC50 ([5]; Agonist)	Emax ([5]; Antagonist)	IC50 ([5]; Antagonist)	Emax ([7]; Agonist)	EC50 ([7]; Agonist)	Emax ([7]; Antagonist)	IC50 ([7]; Antagonist)	Max Response ([8]; Blocker)	IC50 ([8]; Blocker)	also measured
Cl.c1ccc2c(Nc3ccc4[nH]ccc4c3)nc(-c3ccncc3)nc2c1 [BC18630, N-1H-indol-5-yl-2-pyridin-4-ylquinazolin-4-amine hydrochloride]	21.8%	> 10 µM	0%	> 10 µM	0%	> 10 µM	9.36%	> 10 µM	5.7%	> 10 µM	4.44%	> 10 µM	22.5%	> 10 µM	5.41%	> 10 µM	9.48%	> 10 µM	27.61	> 10 µM	Virally induced lysosomal alkalization (lysosomal pH) [3]: inhibited this virally induced alkalization; Transcripts previously identified as TFEB transcriptional targets [6]: notable increase; Max Response ([8]; Opener): 0.97; EC50 ([8]; Opener): > 10 µM; Emax ([9]; Agonist): 0%; EC50 ([9]; Agonist): > 10 µM; IC50 ([9]; Antagonist): > 10 µM; IC50 [10]: > 10 µM; Emax [10]: 6.14%; Mouse hepatic endolysosomal capacity [11]: increased; TFEB protein level [12]: increased; Emax ([13]; Agonist): 0%; EC50 ([13]; Agonist): > 10 µM; Emax ([13]; Antagonist): 0%; IC50 ([13]; Antagonist): > 10 µM; Emax [14]: 13.7%; IC50 [14]: > 10 µM
Cl.Fc1cc(Nc2nc(-c3ccncc3)nc3ncccc23)cc2cc[nH]c12 [BC18813, N-(7-fluoro-1H-indol-5-yl)-2-pyridin-4-ylpyrido[2,3-d]pyrimidin-4-amine hydrochloride]	29.3%	> 10 µM	1.49%	> 10 µM	6.52%	> 10 µM	13%	> 10 µM	0%	> 10 µM	0.95%	> 10 µM	25.6%	> 10 µM	2.91%	> 10 µM	31.3%	> 10 µM	19.98	> 10 µM	Max Response ([8]; Opener): 0.77; EC50 ([8]; Opener): > 10 µM; Emax ([9]; Agonist): 38.8%; EC50 ([9]; Agonist): > 10 µM; Emax ([9]; Antagonist): 0%; IC50 ([9]; Antagonist): > 10 µM; IC50 [10]: > 10 µM; Emax [10]: 4.86%; TFEB protein level [12]: increased; Emax ([13]; Agonist): 4.56%; EC50 ([13]; Agonist): > 10 µM; Emax ([13]; Antagonist): 7.56%; IC50 ([13]; Antagonist): > 10 µM; Emax [14]: 0.27%; IC50 [14]: > 10 µM
